In PubChem BioAssay (NCI):
Values joined by “and” are separate entries in the source; they are usually repeats but may differ in a detail not shown here. Identical values can stand only once.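 Interpolation was linear, between the two tested concentrations surrounding the appropriate level; five concentrations were tested over 48 hours in 96-well plates. Here, GI50 denotes the concentration required for 50% inhibition of growth. Definition used: TGI = concentration required for complete inhibition of growth.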

Test system: MDA-MB-468 breast
Test: inhibition of tumour cell growth, NCI panel, 48 h

Question: For `O=C(COc1cccc(/C=C2\CSc3ccccc3C2=O)c1)Nc1nccs1`, which GI50 is on record?
Answer: 1.59 µM

Question: And the TGI?
Answer: 3.15 µM

Question: For `CC[n+]1c(/C=C/C=C2\N(C)c3ccccc3C2(C)C)sc2ccccc21`, which GI50 is on record?
Answer: 2.77 µM

Question: And the TGI?
Answer: 8.44 µM

Question: `CCOC(=O)c1cnc2c(C)cccc2c1Nc1ccc(C(C)=O)cc1` was tested. Which GI50 did it give?
Answer: 26.3 µM

Question: And the TGI?
Answer: > 100 µM

Question: What does the source list for `CCn1c(-c2nonc2N)nc2cncc(C(=O)N3CC[C@H](N)C3)c21`?
Answer: GI50: 4.57 µM; TGI: 24.5 µM

Question: For `CCN1CCN(C(=O)[C@]23CCC(C)(C)C[C@@H]2C2=CC[C@@H]4[C@@]5(C)C/C(=C/c6ccncc6)C(=O)C(C)(C)[C@@H]5CC[C@@]4(C)[C@]2(C)CC3)CC1`, which GI50 is on record?
Answer: 1.43 µM

Question: And the TGI?
Answer: 3.14 µM

Question: Which GI50 does the source give for `Cc1cc([N+](=O)[O-])c2ccccc2[n+]1[O-]` here?
Answer: 0.18 µM and 0.121 µM

Question: What about the TGI of the same molecule?
Answer: 0.512 µM and 0.369 µM

Question: With `COc1cc2c(=O)[nH]c3cc([N+](=O)[O-])ccc3c2cc1[N+](=O)[O-]` as the molecule, how does the GI50 read?
Answer: 1.03 µM

Question: What about the TGI of the same molecule?
Answer: 4.18 µM

Question: How did the GI50 turn out when `CCCCCCCCCCCC[n+]1ccc2ccccc2c1` was run?
Answer: 0.206 µM

Question: What about the TGI of the same molecule?
Answer: 0.808 µM

Question: Which results are given for `C=CC(=O)N1CC2(CC(n3nc(-c4ccc5c(cnn5C)c4)c(-c4c(Cl)c(C)cc5[nH]ncc45)c3C)C2)C1`?
Answer: GI50: 2.67 µM; TGI: 9.27 µM

Question: How did the GI50 turn out when `Oc1[nH]c2ccccc2c1/C=c1/cc2c(c(-c3ccc(F)cc3)n1)=Nc1ccccc1-2` was run?
Answer: 0.282 µM

Question: What about the TGI of the same molecule?
Answer: 0.978 µM

Question: `N#CC1c2ccccc2C=CN1C(=O)N(c1ccccc1)c1ccccc1` (stereo not drawn) was tested. Which GI50 did it give?
Answer: 1.7 µM

Question: And the TGI?
Answer: 3.4 µM

Question: For `COc1ccc(N=N/C(C(=O)C(F)(F)F)=C(\O)c2ccc(Cl)cc2)cc1`, which GI50 is on record?
Answer: 1.84 µM

Question: And the TGI?
Answer: 5.68 µM

Question: Which results are given for `Cn1ncc(Cl)c1-c1cc(C(=O)N[C@H](CN)Cc2ccc(F)c(F)c2)oc1Cl`?
Answer: GI50: < 0.0169 µM and 0.0194 µM; TGI: 0.282 µM and 0.458 µM

Question: What does the source list for `CC(=O)c1c(C)[nH]c(-c2nc3ccc(N4CCN(C)CC4)cc3[nH]2)c1-c1ccccc1`?
Answer: GI50: 0.361 µM; TGI: 9.27 µM

Question: Which results are given for `O=c1oc2ccc(-c3ccc(F)cc3F)cc2c(=O)n1-c1ccc(F)c(F)c1`?
Answer: GI50: 1.01 µM; TGI: 4.23 µM

Question: Which results are given for `O=C1Cc2cc(C(=O)NC3C[C@H]4CC[C@@H](C3)N4S(=O)(=O)CC3CCN(CCCC(F)(F)F)CC3)c(Cl)cc2N1` (stereo partly drawn)?
Answer: GI50: 27 µM; TGI: > 100 µM

Question: `O=C1/C=C/[C@@H](O)[C@@H]2C[C@@H](O)C[C@H]2/C=C/CCC[C@H](C(F)(F)F)O1` was tested. Which GI50 did it give?
Answer: 0.0233 µM

Question: And the TGI?
Answer: 0.0691 µM

Question: Which GI50 does the source give for `CN1CSC(=S)N(Cc2ccccc2)C1` here?
Answer: 2.02 µM

Question: What about the TGI of the same molecule?
Answer: 6.03 µM

Question: With `COc1ccc2c(OCc3nnc4ccc(-c5ccccc5)nn34)ccnc2c1` as the molecule, how does the GI50 read?
Answer: 3.22 µM

Question: And the TGI?
Answer: > 100 µM

Question: Which results are given for `Cn1ncc2ncc(-c3ccc4ncc(C#N)c(N5CCc6cc(F)c(Cl)cc65)c4c3)cc21`?
Answer: GI50: 2.44 µM; TGI: 10.6 µM

Question: With `CC1OC(O[C@@H]2[C@H](O)C(CO)OC(O[C@H]3COC(O[C@H]4CC[C@]5(C)[C@H]6CC[C@]78OC[C@@]9(CCC(C)(C)C[C@H]97)[C@H](O)C[C@@]8(C)[C@]6(C)CC[C@H]5C4(C)C)[C@@H](OC4OC(CO)[C@@H](O)[C@@H](O)[C@@H]4O)[C@@H]3O)[C@H]2OC2OC[C@@H](O)[C@@H](O)[C@@H]2O)[C@@H](O)[C@@H](O)[C@H]1O` (stereo partly drawn) as the molecule, how does the GI50 read?
Answer: 2.11 µM

Question: What about the TGI of the same molecule?
Answer: 4.33 µM

Question: Which results are given for `COC(=O)[C@H]1CCCN1C(=O)[C@H]1CCCN1C(=O)[C@H](Cc1c[nH]c2ccccc12)NC(=S)Nc1cc(C(F)(F)F)cc(C(F)(F)F)c1`?
Answer: GI50: 3.68 µM; TGI: 68.8 µM

Question: For `NC(=S)c1c(N)n(C2OC(CO)C(O)C2O)c2ncnc(N)c12` (stereo not drawn), which GI50 is on record?
Answer: 0.135 µM

Question: And the TGI?
Answer: 0.326 µM

Question: `COc1cc(-c2nn(-c3cccc(NC(=O)c4ccc(Cl)c(C(F)(F)F)c4)c3)cc2-c2ccncc2)ccc1Cl` was tested. Which GI50 did it give?
Answer: 2.74 µM

Question: What about the TGI of the same molecule?
Answer: > 32.5 µM
